Assays:
[1] = system: corn immature embryos; assay: Callus induction and cell proliferation from corn immature embryos on medium with NO modulators; type: cell-based; conditions: 0.01 mM SNAP, compared to other treatments and controls
Description: This example describes the use of nitric oxide modulators in Agrobacterium-mediated transformation of corn. Corn callus and embryos, with and without previous inoculation in Agrobacterium, were cultured on medium containing NO donors (0.1 mM SNP and 0.01 mM SNAP), a NO-synthase inhibitor (1 mM L-NMMA), and the enantiomer of the inhibitor as negative control (1 mM D-NMMA, which has no effect on NO-synthase). All chemicals were obtained from EMD Biosciences, Inc. (La Jolla, Calif.). Callus and embryos, with and without previous inoculation in Agrobacterium, cultured on MSW57 (Table 1) were used as additional controls. The increase in the percentage of explants expressing GFP recorded on media with NO donors from Day 3 to Day 6 might be due to compound degradation. […] Limiting nitric oxide (NO) production in immature embryos and callus could increase transient GFP expression.

[2] = system: corn immature embryos; assay: Follow-up callus induction experiment, embryos on liquid MSW57 medium with L-NMMA or SNAP; type: cell-based; conditions: MSW57 plus 0.1 mM SNAP, 14-d in culture
Description: To follow up on this callus induction observation, a new experiment was set up where a typical embryo harvest was done from several ears and the embryos were distributed onto control medium MSW57, MSW57 plus 1.0 mM L-NMMA or 0.1 mM S-nitroso-N-acetylpenicillamine (SNAP, a NO donor compound). In this experiment the embryos were placed on a dark Millipore filter set on top of two pieces of felt.

**Q.** With `CC(=O)N[C@H](C(=O)O)C(C)(C)SN=O` (racemic) [SNAP, S-nitroso-N-acetylpenicillamine] as the compound, how does the “cell proliferation of embryo-derived callus” value [1] read?
**A.** significantly higher

**Q.** And the “embryos with callus induction versus control” value [2]?
**A.** more embryos with callus induction than the control

— patent publication US7855325B2, “Use of nitric oxide modulators in Agrobacterium-mediated plant transformation” (Monsanto Technology LLC, priority 2003, dated 2010)
